In ChEMBL document CHEMBL2390950, “Dieckol, a SARS-CoV 3CL(pro) inhibitor, isolated from the edible brown algae Ecklonia cava” (Bioorg Med Chem, 2013):
The source made the active and inactive calls. No cut-off for these calls is given here.

Assays:
[1] = biological target: Replicase polyprotein 1ab (Severe acute respiratory syndrome-related coronavirus) (UniProt P0C6X7)
[2] = biological target: Replicase polyprotein 1ab (Severe acute respiratory syndrome-related coronavirus) (UniProt P0C6X7); test: (§1) Inhibition of SARS coronavirus 3C-like protease cis-cleavage activity transfected in african green monkey Vero cells using SAVLQSGFRK as substrate after 5 hrs by luciferase reporter gene assay; assay type: cell-based
[3] = biological target: T1, Replicase polyprotein 1ab (Severe acute respiratory syndrome-related coronavirus, UniProt P0C6X7); test: as §1; assay type: cell-based
Vero = test: (§2) Cytotoxicity against african green monkey Vero cells assessed as cell death by MTT assay; assay type: cell-based; settings: chlorocebus sabaeus, vero
[4] = Selectivity index, ratio of CC50 for african green monkey Vero cells to IC50 for SARS coronavirus 3C-like protease cis-cleavage activity transfected in african green monkey Vero cells; assay type: functional
[5] = biological target: Replicase polyprotein 1ab (Severe acute respiratory syndrome-related coronavirus) (UniProt P0C6X7); remark: listed apart in the source
[6] = biological target: T1, Replicase polyprotein 1ab
[7] = biological target: T1, Replicase polyprotein 1ab; remark: listed apart in the source
[8] = biological target: Replicase polyprotein 1ab (Severe acute respiratory syndrome-related coronavirus) (UniProt P0C6X7); test: (§3) Binding affinity to SARS coronavirus 3C-like protease by SPR analysis
[9] = biological target: T1, Replicase polyprotein 1ab; test: as §3
[10] = biological target: Replicase polyprotein 1ab (Severe acute respiratory syndrome-related coronavirus) (UniProt P0C6X7); remark: listed apart in the source
[11] = biological target: Replicase polyprotein 1ab (Severe acute respiratory syndrome-related coronavirus) (UniProt P0C6X7); remark: listed apart in the source
[12] = biological target: Replicase polyprotein 1ab (Severe acute respiratory syndrome-related coronavirus) (UniProt P0C6X7); remark: listed apart in the source
[13] = as §2; assay type: cell-based; settings: chlorocebus sabaeus, Vero cells
[14] = biological target: Replicase polyprotein 1ab (Severe acute respiratory syndrome-related coronavirus) (UniProt P0C6X7); test: Inhibition of SARS coronavirus 3C-like protease cis-cleavage activity transfected in african green monkey Vero cells using SAVLQSGFRK as substrate at 200 uM after 5 hrs by luciferase reporter gene assay relative to control; assay type: cell-based

Row | Compound | inhibition [1] | inhibition [2] | IC50 [3] [µM] | CC50 (Vero) [µM] | Ratio CC50/IC50 [4] | inhibition [5] | IC50 [6] [µM] | Ki [7] [µM] | Activity [8] | Kd [9] [µM] | Ratio IC50 [10] | Ratio IC50 [11] | Ratio IC50 [12] | CC50 [13] [µM] | inhibition [14] [%]
1 | Oc1cc(O)cc(Oc2c(O)cc(O)c3c2Oc2c(O)cc(Oc4c(O)cc(O)cc4O)cc2O3)c1 | Active | Dose-dependent effect | 112 | > 200 | >1.8 | Dose-dependent effect | 42.1 | 19.3 |  |  |  |  |  |  | 
2 | Oc1cc(O)c2oc3cc(O)c4oc5cc(O)cc(O)c5oc4c3oc2c1 [DIOXINODEHYDROECKOL] |  | Dose-dependent effect | 146 | > 200 | >1.4 | Dose-dependent effect | 158 |  |  |  |  |  |  |  | 
3 | Oc1cc(O)cc(Oc2c(Oc3c(O)cc(O)cc3O)cc(O)c3c2Oc2c(O)cc(O)cc2O3)c1 [2-PHLOROECKOL] | Active | Dose-dependent effect | 112 | > 200 | >1.8 | Dose-dependent effect | 13.3 | 24 |  |  |  |  |  |  | 
4 | Oc1cc(O)cc(O)c1 [PHLOROGLUCINOL] |  |  |  | > 200 |  |  | > 200 |  |  |  |  |  |  |  | 
5 | Oc1cc(O)cc(Oc2c(O)cc(O)c3c2Oc2c(O)cc(Oc4c(O)cc(Oc5c(O)cc(O)c6c5Oc5c(O)cc(O)cc5O6)cc4O)cc2O3)c1 [DIECKOL] | Active | Dose-dependent effect | 68.1 | > 200 | >2.9 | Dose-dependent effect | 2.7 | 2.4 | Dose-dependent effect | 10.3 | 60 | 50 | 30 |  | 
6 | Oc1cc(O)cc(Oc2c(O)cc(Oc3c(O)cc(O)cc3O)cc2O)c1 [TRIPHLORETHOL A] |  |  |  |  | <1 | Dose-dependent effect |  |  |  |  |  |  |  | > 200 | 15
7 | COc1ccc([C@@H]2CC(=O)c3c(O)cc(O)cc3O2)cc1O [HESPERETIN] |  |  |  |  |  |  |  |  |  | 24.5 |  |  |  |  | 
8 | Oc1cc(O)cc(Oc2c(O)cc(O)c3c2Oc2c(O)cc(O)cc2O3)c1 [ECKOL] | Active |  |  | > 200 | <1 | Dose-dependent effect | 8.8 | 8.2 |  |  |  |  |  |  | 30
9 | Oc1cc(O)c(Oc2cc(O)cc(O)c2Oc2cc(O)cc(O)c2-c2c(O)cc(O)cc2O)c(O)c1 [FUCODIPHLOROETHOL G] | Active | Dose-dependent effect | 177 | > 200 | >1.1 | Dose-dependent effect | 22.5 | 63.5 |  |  |  |  |  |  | 
10 | Oc1cc(O)cc(Oc2c(O)cc(O)c3c2Oc2c(O)cc4oc5c(Oc6cc(O)cc(O)c6)c(O)cc(O)c5c4c2O3)c1 [PHLOROFUCOFUROECKOL A] | Active | Dose-dependent effect | 175 | > 200 | >1.1 | Dose-dependent effect | 16.7 | 10.6 |  |  |  |  |  |  | 
